Structures are written as SMILES.

The experiment has as its system MCDS mice (homozygous N617K collagen X mutation). Kind of experiment: Western blots of rib growth plate cartilage of MCDS mice. Format: in vivo, mouse. The following applies: 1 week. The procedure: FIG. 2 illustrates the effect of carbamazepine on the growth plate pathology associated with MCDS. 3 week old MCDS mice were treated with CBZ for a period of one week. Untreated MCDS mice and mice wild-type for collagen X (WT) were used as controls. (a) H+E staining of the tibial growth plate at 4 weeks of age. (b) Immunohistochemistry for Grp78 and (c) Immunohistochemistry for collagen X. Yellow bars show the hypertrophic zone. Scale bars equal to 100 μM in all cases. (d) is a table showing growth plate zone measurements at 4 weeks of age. Mean±SEM. Number of animals shown in brackets. Significance between mutant untreated mice and treated mice shown by the asterisk. (e) Western blots of rib growth plate cartilage at 4 weeks of age for Grp78, ATF4, p62/SQSTM1 and LC3-II alongside the associated coomassie blue stain used as a loading control. Quantification of these blots against the coomassie protein level is shown in supplementary S4. (f) X-ray images of the pelvis at 6 weeks of age. The angle between the lines was measured in a minimum of 5 animals and a graph showing the mean±SEM is shown in (g). Graphs showing the percentage increase in growth of the (h) tibia and (i) femur from 3 weeks of age.
FIG. 8 illustrates the quantification of western blots on mouse rib growth plate tissue MCDS mice were treated with CBZ for a period of one week. Untreated MCDS mice and mice wild-type for collagen X (WT) were used as controls. Rib cages were dissected, treated with collagenase for 2 hours and cartilage growth plates were further dissected from each individual rib. Growth plates were pooled from 3 individual mice and protein extracted in SDS-PAGE buffer. 20 μg was used in SDS-PAGE and western blotting. Quantification of (a) BiP, (b) ATF4, (c) p62 and (d) LC3B protein levels against the coomassie protein level. Mean±SEM of three independent experiments;
The generation and genotyping of the Col10a1 p.N617K mouse line has been described previously (Rajpar et al 2009). Mice homozygous for the MCDS-causing N617K collagen X mutation were x-rayed at 3 weeks of age and treated with carbamazepine (250 mg/kg/day) for up to 21 days via a subcutaneous implantation of a slow-release pellet (Innovative research of America USA C-113) whilst the mouse was under anaesthetic. […]
Rib-cages from 4 week old mice were dissected and placed in collagenase medium for 1-2 hours, after which the cartilage growth plates were collected using a dissecting microscope. […] The supernatant was collected and analysed by SDS-PAGE.
The protein concentration of samples was determined using a Pierce bicinchoninic acid (BCA) protein assay with a bovine serum albumin standard curve. […]
Background: In western blotting, separated proteins are transferred to a membrane and probed.

For the molecule `NC(=O)N1c2ccccc2C=Cc2ccccc21` [CBZ, Carbamazepine], under “MCDS mice”, the “concentration of the autophagy substrate p62 in growth plate extracts” value is reported as “decrease”. The “LC3B-II protein in growth plate extracts” value (MCDS mice, autophagy marker) is “increase”. For the same molecule, where the note is “treated vs untreated MCDS mice”, the “ATF4 level on western blots of growth plate extracts” value is listed as “significantly reduced” and the “BiP level on western blots of growth plate extracts” value was “significantly reduced”.

The values above are taken from patent publication US20190076440A1, “TREATMENT OF TISSUE DISORDERS” (priority 2016, published 2019).
